# Laboratory results: patent publication US20210070748A1, “INHIBITORS OF BRUTONS TYROSINE KINASE” (Pharmacyclics LLC, priority 2015, published 2021)
# Legend:
# Type in all cases: biochemical
# [1] = molecular target: EGFR (Homo sapiens, UniProt P00533); assay: Inhibition of a panel of kinases, in vitro HotSpot kinase assay: EGFR; settings: D-compounds panel data; 1 μM ATP
# Protocol: (§1) The degree of inhibition of a panel of kinases is determined using the in vitro HotSpot kinase assay (purified enzymes, ^33P-ATP, an appropriate substrate and 1 μM ATP).
# [2] = molecular target: LCK (Homo sapiens, UniProt P06239); assay: Inhibition of a panel of kinases, in vitro HotSpot kinase assay: LCK; settings: D-compounds panel data; 1 μM ATP; read-out: IC50 LCK
# LCK, sequence (P06239 whole entry): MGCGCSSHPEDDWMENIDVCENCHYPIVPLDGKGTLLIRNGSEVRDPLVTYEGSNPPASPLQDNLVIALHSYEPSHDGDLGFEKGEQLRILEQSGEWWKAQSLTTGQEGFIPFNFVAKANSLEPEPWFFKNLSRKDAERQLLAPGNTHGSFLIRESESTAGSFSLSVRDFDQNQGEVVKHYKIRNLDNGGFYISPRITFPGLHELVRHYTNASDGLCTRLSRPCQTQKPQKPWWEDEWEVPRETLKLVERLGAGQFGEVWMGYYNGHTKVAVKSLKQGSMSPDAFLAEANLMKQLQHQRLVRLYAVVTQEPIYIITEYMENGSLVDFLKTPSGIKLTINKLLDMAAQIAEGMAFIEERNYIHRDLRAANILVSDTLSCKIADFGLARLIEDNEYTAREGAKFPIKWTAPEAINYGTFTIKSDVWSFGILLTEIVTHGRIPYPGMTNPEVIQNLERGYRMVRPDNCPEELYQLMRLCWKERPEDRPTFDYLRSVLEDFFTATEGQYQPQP
# [3] = molecular target: T1, ITK (Homo sapiens, UniProt Q08881); assay: Inhibition of a panel of kinases, in vitro HotSpot kinase assay: ITK; settings: D-compounds panel data; 1 μM ATP
# T1 sequence (Q08881 1-620): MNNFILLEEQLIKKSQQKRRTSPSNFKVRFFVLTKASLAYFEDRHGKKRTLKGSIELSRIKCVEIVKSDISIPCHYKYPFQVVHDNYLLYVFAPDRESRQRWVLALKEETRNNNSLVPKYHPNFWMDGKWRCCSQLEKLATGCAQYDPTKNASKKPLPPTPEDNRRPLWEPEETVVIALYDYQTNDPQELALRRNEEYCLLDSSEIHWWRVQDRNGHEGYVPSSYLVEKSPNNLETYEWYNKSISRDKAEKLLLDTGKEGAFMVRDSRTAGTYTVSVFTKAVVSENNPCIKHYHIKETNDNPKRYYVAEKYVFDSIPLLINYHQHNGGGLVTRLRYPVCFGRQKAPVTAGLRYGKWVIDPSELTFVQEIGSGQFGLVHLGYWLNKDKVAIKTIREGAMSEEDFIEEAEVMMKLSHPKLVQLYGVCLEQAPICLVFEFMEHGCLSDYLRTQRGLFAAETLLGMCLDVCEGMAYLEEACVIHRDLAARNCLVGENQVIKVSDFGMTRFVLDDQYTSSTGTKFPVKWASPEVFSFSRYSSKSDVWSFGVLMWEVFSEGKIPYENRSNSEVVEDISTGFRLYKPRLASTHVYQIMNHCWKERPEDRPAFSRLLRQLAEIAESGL
# Protocol: as §1
# [4] = molecular target: T2, BTK-WT (Homo sapiens, UniProt Q06187); assay: Btk in vitro inhibitory activity (one of Method A TR-FRET, Method B electrophoretic mobility shift, Method C radiometric filter binding); settings: D-compounds panel data; read-out: IC50 BTK-WT
# T2 construct: purified from insect cells as a full-length construct containing an N-terminal 6X-His tag; His6 (N); made in house; host or cells: insect cells (baculovirus Sf21 in Method B)
# T2 sequence (Q06187 whole entry): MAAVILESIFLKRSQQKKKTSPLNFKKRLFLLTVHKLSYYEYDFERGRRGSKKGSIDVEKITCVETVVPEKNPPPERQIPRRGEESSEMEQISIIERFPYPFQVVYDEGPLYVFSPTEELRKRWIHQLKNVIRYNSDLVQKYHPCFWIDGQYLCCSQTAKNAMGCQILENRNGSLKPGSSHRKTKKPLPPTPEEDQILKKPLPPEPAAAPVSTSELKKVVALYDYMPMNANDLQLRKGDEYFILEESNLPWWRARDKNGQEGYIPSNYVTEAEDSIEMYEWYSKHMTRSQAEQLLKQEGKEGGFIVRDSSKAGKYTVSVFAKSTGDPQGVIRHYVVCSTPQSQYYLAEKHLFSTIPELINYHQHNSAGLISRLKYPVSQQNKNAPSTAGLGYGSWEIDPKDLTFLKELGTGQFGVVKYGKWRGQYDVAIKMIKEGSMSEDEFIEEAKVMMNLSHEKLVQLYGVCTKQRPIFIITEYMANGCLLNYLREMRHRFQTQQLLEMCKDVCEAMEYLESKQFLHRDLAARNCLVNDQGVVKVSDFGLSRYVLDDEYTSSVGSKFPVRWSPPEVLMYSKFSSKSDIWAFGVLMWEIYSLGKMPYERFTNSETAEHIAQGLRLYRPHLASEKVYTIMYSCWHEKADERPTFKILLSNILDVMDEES
# [5] = molecular target: T3, TEC (Homo sapiens, UniProt P42680); assay: Inhibition of a panel of kinases, in vitro HotSpot kinase assay: TEC; settings: D-compounds panel data; 1 μM ATP
# T3 sequence (P42680 1-631): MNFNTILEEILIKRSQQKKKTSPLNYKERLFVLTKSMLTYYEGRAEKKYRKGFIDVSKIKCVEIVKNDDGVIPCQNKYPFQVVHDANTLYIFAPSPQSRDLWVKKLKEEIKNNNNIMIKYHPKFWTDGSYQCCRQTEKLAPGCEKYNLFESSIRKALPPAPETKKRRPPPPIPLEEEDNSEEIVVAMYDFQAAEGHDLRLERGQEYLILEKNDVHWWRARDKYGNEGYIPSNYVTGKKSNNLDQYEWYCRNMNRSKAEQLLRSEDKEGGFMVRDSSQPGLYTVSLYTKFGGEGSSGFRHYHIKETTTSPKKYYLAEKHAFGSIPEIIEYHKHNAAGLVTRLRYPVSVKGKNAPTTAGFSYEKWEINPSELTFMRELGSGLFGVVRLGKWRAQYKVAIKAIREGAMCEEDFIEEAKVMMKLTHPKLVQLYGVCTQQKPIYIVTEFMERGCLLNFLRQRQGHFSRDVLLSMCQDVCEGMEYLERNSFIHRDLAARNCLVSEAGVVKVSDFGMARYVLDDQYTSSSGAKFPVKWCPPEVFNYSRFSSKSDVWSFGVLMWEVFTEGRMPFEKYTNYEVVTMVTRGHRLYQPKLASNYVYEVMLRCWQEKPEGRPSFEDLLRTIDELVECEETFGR
# Protocol: as §1
# EGFR, sequence (P00533 25-1210): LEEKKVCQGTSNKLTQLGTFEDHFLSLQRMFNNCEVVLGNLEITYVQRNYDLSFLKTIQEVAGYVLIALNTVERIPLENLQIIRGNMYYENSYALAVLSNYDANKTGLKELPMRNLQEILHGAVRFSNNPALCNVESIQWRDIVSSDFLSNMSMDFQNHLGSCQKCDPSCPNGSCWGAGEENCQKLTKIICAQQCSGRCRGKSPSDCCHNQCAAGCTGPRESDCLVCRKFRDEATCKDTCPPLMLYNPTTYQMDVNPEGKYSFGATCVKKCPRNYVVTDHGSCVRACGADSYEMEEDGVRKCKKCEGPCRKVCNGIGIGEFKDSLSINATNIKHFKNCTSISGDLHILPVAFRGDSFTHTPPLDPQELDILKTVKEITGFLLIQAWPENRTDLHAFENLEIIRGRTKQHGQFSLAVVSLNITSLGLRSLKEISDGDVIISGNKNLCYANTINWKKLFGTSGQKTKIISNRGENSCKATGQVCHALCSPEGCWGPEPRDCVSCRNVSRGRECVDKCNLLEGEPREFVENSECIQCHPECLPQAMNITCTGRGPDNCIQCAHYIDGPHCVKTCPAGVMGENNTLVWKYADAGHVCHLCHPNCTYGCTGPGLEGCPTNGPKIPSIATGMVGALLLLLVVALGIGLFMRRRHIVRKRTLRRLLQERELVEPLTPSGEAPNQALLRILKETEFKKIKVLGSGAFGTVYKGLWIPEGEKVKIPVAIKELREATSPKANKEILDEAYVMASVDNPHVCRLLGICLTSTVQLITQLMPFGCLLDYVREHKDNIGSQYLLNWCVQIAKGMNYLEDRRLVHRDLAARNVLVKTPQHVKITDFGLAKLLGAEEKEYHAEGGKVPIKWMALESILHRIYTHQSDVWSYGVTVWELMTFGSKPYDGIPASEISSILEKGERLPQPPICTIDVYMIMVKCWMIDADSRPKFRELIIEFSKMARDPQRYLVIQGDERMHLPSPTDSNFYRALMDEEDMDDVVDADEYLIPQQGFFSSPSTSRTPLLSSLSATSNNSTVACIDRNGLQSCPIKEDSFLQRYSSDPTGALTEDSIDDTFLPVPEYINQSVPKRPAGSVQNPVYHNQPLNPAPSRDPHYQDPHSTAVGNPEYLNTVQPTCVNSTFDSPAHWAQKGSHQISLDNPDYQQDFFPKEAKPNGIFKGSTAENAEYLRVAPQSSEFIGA
IC50 [1] [nM],IC50 [2] [nM],IC50 [3] [nM],IC50 [4] [nM],IC50 [5] [nM],SMILES
> 10000,> 10000,> 10000,1000 to 10000,1000 to 10000,"C[C@H]1C[C@H](NC(=O)c2ccc(C3CC3)cc2)CN(c2cnc(C(N)=O)c(Nc3cnn(C)c3)n2)C1 [Example D-34, 5-[(3S,5S)-3-(4-cyclopropylbenzamido)-5-methylpiperidin-1-yl]-3-[(1-methyl-1H-pyrazol-4-yl)amino]pyrazine-2-carboxamide]"
1000 to 10000,100 to 1000,1000 to 10000,≤ 10,10 to 100,"CC(C)n1ccc(C(=O)N[C@@H]2CCCN(c3cnc(C(N)=O)c(Nc4cnn(C)c4)n3)[C@@H]2C)cc1=O [Example D-35, 3-[(1-methyl-1H-pyrazol-4-yl)amino]-5-[(2R,3R)-2-methyl-3-[2-oxo-1-(propan-2-yl)-1,2-dihydropyridine-4-amido]piperidin-1-yl]pyrazine-2-carboxamide]"
> 10000,100 to 1000,100 to 1000,≤ 10,10 to 100,"Cn1cc(Nc2nc(N3CCC[C@@H](NC(=O)c4ccc(C(C)(C)O)cc4)C3)nnc2C(N)=O)cn1 [Example D-39, 3-[(3R)-3-[4-(2-hydroxypropan-2-yl)benzamido]piperidin-1-yl]-5-[(1-methyl-1H-pyrazol-4-yl)amino]-1,2,4-triazine-6-carboxamide]"
100 to 1000,10 to 100,100 to 1000,≤ 10,≤ 10,"C[C@@H]1[C@H](NC(=O)c2ccc(C(C)(C)O)nc2)CCCN1c1cnc(C(N)=O)c(Nc2cnn(C)c2)n1 [Example D-40, 5-[(2R,3R)-3-[6-(2-hydroxypropan-2-yl)pyridine-3-amido]-2-methylpiperidin-1-yl]-3-[(1-methyl-1H-pyrazol-4-yl)amino]pyrazine-2-carboxamide]"
1000 to 10000,10 to 100,100 to 1000,≤ 10,10 to 100,"C[C@@H]1[C@H](NC(=O)c2ccc(C(C)(C)O)nc2)CCCN1c1nnc(C(N)=O)c(Nc2cnn(C)c2)n1 [Example D-41, 3-[(2R,3R)-3-[6-(2-hydroxypropan-2-yl)pyridine-3-amido]-2-methylpiperidin-1-yl]-5-[(1-methyl-1H-pyrazol-4-yl)amino]-1,2,4-triazine-6-carboxamide]"
> 10000,> 10000,> 10000,100 to 1000,100 to 1000,"C[C@@H]1[C@H](NC(=O)c2ccc(C3CC3)cc2)CCCN1c1cnc(C(N)=O)c(Nc2ccc(OC(F)(F)F)cc2)n1 [Example D-42, 5-[(2R,3R)-3-(4-cyclopropylbenzamido)-2-methylpiperidin-1-yl]-3-{[4-(trifluoromethoxy)phenyl]amino}pyrazine-2-carboxamide]"
> 10000,100 to 1000,1000 to 10000,10 to 100,100 to 1000,"Cn1cc(Nc2nc(N3CCC[C@H]4[C@@H]3CCN4C(=O)c3ccc(C4CC4)cc3)cnc2C(N)=O)cn1 [Example D-45, 5-[(3aS,7aS)-1-(4-cyclopropylbenzoyl)-octahydro-1H-pyrrolo[3,2-b]pyridin-4-yl]-3-[(1-methyl-1H-pyrazol-4-yl)amino]pyrazine-2-carboxamide]"
100 to 1000,100 to 1000,1000 to 10000,10 to 100,10 to 100,"Cn1cc(Nc2nc(N3CCC[C@@H]4[C@H]3CCCN4C(=O)c3ccc(C4CC4)cc3)cnc2C(N)=O)cn1 [Example D-46, 5-I[(4aR,8aR)-5-(4-cyclopropylbenzoyl)-decahydro-1,5-naphthyridin-1-yl]-3-[(1-methyl-1H-pyrazol-4-yl)amino]pyrazine-2-carboxamide]"
> 10000,> 10000,> 10000,10 to 100,10 to 100,"C[C@@H]1[C@H](NC(=O)c2ccc(C3CC3)nc2)CCCN1c1cnc(C(N)=O)c(Nc2ccc(OC3CCC(F)(F)CC3)cc2)n1 [Example D-48, 5-[(2R,3R)-3-(6-cyclopropylpyridine-3-amido)-2-methylpiperidin-1-yl]-3-({4-[(4,4-difluorocyclohexyl)oxy]phenyl}amino)pyrazine-2-carboxamide]"

# Further lines, the compound ahead of its results:
SMILES,IC50 [1] [nM],IC50 [2] [nM],IC50 [3] [nM],IC50 [4] [nM],IC50 [5] [nM]
"C[C@@H]1[C@H](N2Cc3cc(C4CC4)ccc3C2=O)CCCN1c1cnc(C(N)=O)c(Nc2cnn(C)c2)n1 [Example D-36, 5-[(2R,3R)-3-(5-cyclopropyl-1-oxo-2,3-dihydro-1H-isoindol-2-yl)-2-methylpiperidin-1-yl]-3-[(1-methyl-1H-pyrazol-4-yl)amino]pyrazine-2-carboxamide]",100 to 1000,100 to 1000,100 to 1000,≤ 10,≤ 10
"C[C@@H]1[C@H](N2CCN(C)C2=O)CCCN1c1cnc(C(N)=O)c(Nc2ccc(C3(C)CCN(C4CC4)CC3)cc2)n1 [Example D-38, 3-{[4-(1-cyclopropyl-4-methylpiperidin-4-yl)phenyl]amino}-5-[(2R,3R)-2-methyl-3-(3-methyl-2-oxoimidazolidin-1-yl)piperidin-1-yl]pyrazine-2-carboxamide]",100 to 1000,10 to 100,10 to 100,≤ 10,10 to 100
"Cn1cc(Nc2nc(N3CCC[C@@H]4[C@H]3CCN4C(=O)c3ccc(C4CC4)cc3)cnc2C(N)=O)cn1 [Example D-44, 5-[(3aR,7aR)-1-(4-cyclopropylbenzoyl)-octahydro-1H-pyrrolo[3,2-b]pyridin-4-yl]-3-[(1-methyl-1H-pyrazol-4-yl)amino]pyrazine-2-carboxamide]",100 to 1000,100 to 1000,> 10000,10 to 100,100 to 1000
"Cn1cc(Nc2nc(N3CCC[C@H]4[C@@H]3CCCN4C(=O)c3ccc(C4CC4)cc3)cnc2C(N)=O)cn1 [Example D-47, 5-[(4aS,8aS)-5-(4-cyclopropylbenzoyl)-decahydro-1,5-naphthyridin-1-yl]-3-[(1-methyl-1H-pyrazol-4-yl)amino]pyrazine-2-carboxamide]",> 10000,> 10000,> 10000,1000 to 10000,1000 to 10000
"C[C@@H]1[C@H](NC(=O)c2ccc(C(C)(C)N)cc2)CCCN1c1cnc(C(N)=O)c(Nc2cnn(C)c2)n1 [Example D-51, 5-[(2R,3R)-3-[4-(2-aminopropan-2-yl)benzamido]-2-methylpiperidin-1-yl]-3-[(1-methyl-1H-pyrazol-4-yl)amino]pyrazine-2-carboxamide]",100 to 1000,10 to 100,10 to 100,≤ 10,≤ 10
"C[C@@H]1[C@H](NC(=O)N(C)C)CCCN1c1cnc(C(N)=O)c(Nc2ccc(N3CCN(C)CC3)cc2F)n1 [Example D-52, 5-[(2R,3R)-3-[(dimethylcarbamoyl)amino]-2-methylpiperidin-1-yl]-3-{[2-fluoro-4-(4-methylpiperazin-1-yl)phenyl]amino}pyrazine-2-carboxamide]",1000 to 10000,1000 to 10000,100 to 1000,10 to 100,100 to 1000
"C[C@@H]1[C@H](NC(=O)N(C)C)CCCN1c1cnc(C(N)=O)c(Nc2cn[nH]c2)n1 [Example D-53, 5-[(2R,3R)-3-[(dimethylcarbamoyl)amino]-2-methylpiperidin-1-yl]-3-[(1H-pyrazol-4-yl)amino]pyrazine-2-carboxamide]",1000 to 10000,100 to 1000,100 to 1000,10 to 100,10 to 100
